Source: patent US11903917B2, “MEK-inhibitor for the treatment of viral and bacterial infections” (priority 2017, dated 2024)

How the values were obtained:
[1] = test system: MRSA strain USA300; assay: Over-night treated culture, bacterial titers (CFU/ml) and OD600; type: cell-based, Staphylococcus aureus
[2] = test system: A549 cells infected with A/Puerto Rico/8/34 (H1N1) and/or S. aureus 6850; type: cell-based
[3] = test system: influenza virus strain A/Regensburg/D6/2009 (RB1, H1N1 pdm09); assay: Example 1: virus titer in the lung of infected mice, AVICEL plaque assay; type: in vivo, C57BL/6 mice
Protocol: 8 weeks old C57BL/6 mice (five per group) were infected with 1.5×10^5 PFU (5×MLD50) of the influenza virus strain A/Regensburg/D6/2009, (RB1, H1N1 pdm09). […] All animals received a volume of 200 μl per os. Mice were sacrificed 24 h post infection and lungs were weighed, transferred into a Lysing Matrix D tube (MP Bio) and BSS (buffered salt solution) in an amount of the 10-fold volume of the lung was applied to the samples. Organs were shredded using the FastPrep FP 120 (Savant). To remove the cell debris the homogenates were centrifuged for 15 min at 2000 rpm and the supernatant collected. The determination of virus titer in homogenates was performed using the AVICEL® plaque assay. Results are presented in FIG. 1 as virus titer (log 10) pfu/ml (left) or % virus titer (right). Virus titer was determined by two investigators independently. Mean values from all titrations were presented.

[4] = test system: MRSA strain S. aureus (USA300); assay: Cell-free culture bacterial growth (OD600)
Protocol: Bacterial growth was monitored for 360 minutes.
MRSA bacteria were incubated with different concentrations of the MEK inhibitor ranging from 0-100 μM and bacterial growth was monitored six hours after cultivation.

[5] = test system: A549 cells; assay: A549 cell viability (trypan blue) and LDH release; type: cell-based, human; conditions: 1-100 μM, 24 and 48 hours
Protocol: To rule out that the reduction in viral and intracellular bacterial replication was a result of a cytotoxic effect of PD-0184264 on A549 cells, cell viability in presence of increasing concentrations was monitored for 24 and 48 hours. Additionally, a LDH-Assay was performed to determine membrane rupture due to inhibitor treatment. […] A549 cells were treated for 24 (as shown in FIGS. 15A and C) or 48 (as shown in FIGS. 15B and D) hours with increasing concentrations of PD-0184264 (1, 5, 10, 20, 50 or 100 μM). After the incubation times, supernatants were taken for measurement of LDH release (shown in FIGS. 15C, D) using the CytoSelect LDH Cytotoxicity Assay Kit according to the manufacturer's instructions. Additionally, viable cells were counted by staining with trypan blue. Cell viability was normalized to DMSO-treated cells and is shown as % viability. […] Statistical significance was calculated by one-way ANOVA followed by Dunnett's multiple comparisons test (*p<0.05; **p<0.01; […]***p<0.001).

[6] = test system: S. aureus 6850; type: cell-based, Staphylococcus aureus
[7] = test system: S. aureus 6850; assay: Over-night treated culture, bacterial titers (CFU/ml) and OD600; type: cell-based, Staphylococcus aureus
[8] = test system: Streptococcus pneumoniae strain TIGR4 (serotype 4); assay: Over-night growth of Streptococcus pneumoniae (OD600, bacterial titers); type: cell-based; conditions: over night treatment
Protocol: (§1) Similar to S. aureus, the majority of Streptococcus pneumoniae strains express eukaryotic-like serine/threonine kinases, such as PknB, which are highly conserved between different genera. Additionally, these kinases share high homology to cellular MAP kinases (e.g. ERK, JNK, p38). […] Thus, the impact of PD-0184264 on different strains of Streptococci pneumonia was analyzed. Streptococcus pneumoniae strains can be divided into different serotypes, which differ in their virulence and overall pathogenicity. To test for a serotype- or strain-independent effect, we used the encapsulated strains D39 and TIGR4, which are both virulent, but belong to different serotypes. […] Then, the OD600 was measured again (Results shown in FIG. 11A) and dilution series were objected to BHI agar plates to determine bacterial titers (Results shown in FIG. 11B).

[9] = test system: Streptococcus pneumoniae strain D39 wt (serotype 2); assay: as above; type: cell-based; conditions: over night treatment
Protocol: as §1

[10] = test system: H1N1 pdm09; assay: Example 11: lung virus titration assay in infected mice; type: in vivo, C57BL/6 mice; conditions: for virus titer in the lung, control set to 100%: 24 h after infection
Protocol: (A) After H1N1 pdm09 infection female C57BL/6 mice were treated with either 2.8, 8.4 or 25 mg/kg PD-0184264 (left side) or with 25, 75 or 150 mg/Kg […] ([…]) the oral route. 24 hrs after infection the animals were killed and lung was taken to prepare a 10% suspension. Virus titer was determined using the standard method. Virus titer of mice treated with the two MEK-inhibitors were compared to virus titer of mice treated with solvent (Control) alone. Virus tier in the lungs of control mice was set to 100% (black bar). Graphpad Prism 7 software was used to illustrate both figures.
For oral application of 25 mg/kg, 2.5 mg of PD-0184264 were dissolved in 50 μl DMSO (Sigma-Aldrich, Germany) and further diluted with 0.15 ml Cremophor EL (Merck-Millipore, Germany) and 0.8 ml PBS (Gibco, Germany). For application of 8.4 mg/kg and 2.8 mg/kg, 0.84 mg or 0.28 mg PD-0184264 were dissolved with 50 μl DMSO (Sigma-Aldrich, Germany) and further diluted with 0.15 ml Cremophor EL/0.8 ml PBS.
Eight week old female C57Bl/6 mice (Charles River Laboratories, Germany) with a body weight of 21.0-24.0 g at administration were used for antiviral studies. The animals were normally fed. Drinking water was available ad libitum.
Drugs were administrated using a single dosing on test day 1 by oral gavage. The application speed was 15 s per dose with an administration volume of 200 μl.
Mice were sacrificed 24 h post infection and lungs were weighed, transferred into a Lysing Matrix D tube (MP Bio) and BSS was applied in an amount of the 10-fold volume of the lung. Organs were shredded using the FastPrep FP 120 (Savant). To remove the cell debris the homogenates were centrifuged for 15 min at 2000 rpm and the supernatant collected. The determination of virus titer in homogenates was performed using the AVICEL® plaque assay as described previously (Haasbach et al. 2011, Mastrosovich et al. 2006).

[11] = test system: S. aureus; assay: Resistance development during 17 days of constant treatment; type: cell-based, Staphylococcus aureus; conditions: 24 h cycles repeated for 17 days

## O=C(O)c1ccc(F)c(F)c1Nc1ccc(I)cc1Cl [PD-0184264, 2-(2-chloro-4-iodophenylamino)-N-3,4-difluoro benzoic acid]
[1]; 10 μM, over night, MRSA USA300
  reduction of bacterial growth (FIG. 4): significant reduction of growth
[1]; 20 μM, over night, MRSA USA300, CFU/ml
  reduction of bacterial titers: 1.5-2 orders of a magnitude
[1]; over night treatment, MRSA USA300, vs solvent
  effect on bacterial titers (CFU/ml): very strong reduction in bacterial load
[2]; bacterial and viral co-infection, FIG. 5
  concentration already showing reduction of the cytopathic effect: 15 µM
[2]; increasing concentrations, 24 h, IAV (H1N1) MOI 0.001 and S. aureus 6850 MOI 0.1
  cytopathic effect (CPE), cell monolayer disruption: reversed in a concentration dependent manner
[3]; 25 mg/kg per os, 8 h interval, 24 h post infection
  effect on virus titer in the lung (FIG. 1): same effect as 150 mg/kg CI-1040
[3]; 25 and 75 mg/kg
  efficacy in vivo by oral administration (Example 1): effective
[4]; 50 μM, monitored for 360 minutes, vs solvent DMSO
  bacterial growth (OD600): almost complete absent
[4]; starting at 50 μM, 6 hrs
  inhibition of bacterial growth (FIG. 3): almost complete inhibition of growth
[5]
  cell toxicity (cell viability, LDH release): does not induce cell toxicity
[6]
  intracellular bacterial titers: reduced intracellular bacterial titers
[7]; 10 μM, over night, S. aureus 6850
  reduction of bacterial growth (FIG. 4): significant reduction of growth
[7]; 20 μM, over night, S. aureus 6850, CFU/ml
  reduction of bacterial titers: 1.5-2 orders of a magnitude
[7]; over night treatment, S. aureus 6850, vs solvent
  effect on bacterial titers (CFU/ml): very strong reduction in bacterial load
[8]
  sensitivity of growth (OD600, bacterial titers): sensitive
[9]
  sensitivity of growth (OD600, bacterial titers): sensitive
[10]; 2.8 mg/kg oral
  virus titer in the lung, control set to 100%: approx. 70%
[10]; 8.4 mg/kg oral
  virus titer in the lung, control set to 100%: approx. 20%
[10]; 25 mg/kg oral
  virus titer in the lung, control set to 100%: approx. 10%
[10]; 25 mg/kg, FIG. 18
  reduction of the virus titer in the lung: at least 90%
[10]; oral
  fold lower concentration needed to achieve a similar effect as 150 mg/kg CI-1040: 6 fold
[11]
  resistance development in S. aureus: did not induce resistance
